# Measured values: patent US20260053834A1, “COVALENT MODIFIERS OF AKT1 AND USES THEREOF” (Terremoto Biosciences, Inc., priority 2023, published 2026)
# pIC50: −log10 of the molar value.
# Key:
# AKT1 WT = target: T1, AKT1 WT (Homo sapiens, UniProt P31749); assay: Live cell target engagement by NanoBRET competitive probe displacement, AKT1 WT; format: binding; conditions: transfected HEK293 cells, 2 h at 37° C., read-out: AKT1 WT IC50: GeoMean IC50
# T1 construct: expressed in transfected cells; host or cells: HEK293
# T1 sequence (P31749 whole entry): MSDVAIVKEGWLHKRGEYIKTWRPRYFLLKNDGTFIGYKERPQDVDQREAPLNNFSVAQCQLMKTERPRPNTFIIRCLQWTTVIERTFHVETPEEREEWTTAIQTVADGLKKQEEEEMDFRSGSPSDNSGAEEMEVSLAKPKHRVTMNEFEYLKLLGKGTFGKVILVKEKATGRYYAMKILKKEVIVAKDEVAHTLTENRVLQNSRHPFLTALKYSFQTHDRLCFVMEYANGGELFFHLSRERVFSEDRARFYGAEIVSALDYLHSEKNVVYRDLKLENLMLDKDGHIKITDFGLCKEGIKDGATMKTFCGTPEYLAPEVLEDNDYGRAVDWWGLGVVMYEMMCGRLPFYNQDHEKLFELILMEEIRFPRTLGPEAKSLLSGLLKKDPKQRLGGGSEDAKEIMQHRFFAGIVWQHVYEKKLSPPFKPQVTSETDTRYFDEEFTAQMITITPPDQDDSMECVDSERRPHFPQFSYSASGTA
# AKT1 E17K = target: T2, AKT1 E17K (Homo sapiens, UniProt P31749, E17K); assay: Live cell target engagement by NanoBRET competitive probe displacement, AKT1 E17K; format: binding; conditions: transfected HEK293 cells, 2 h at 37° C., read-out: AKT1 E17K IC50: GeoMean IC50
# T2 construct: expressed in transfected cells; host or cells: HEK293
# T2 sequence (P31749 whole entry E17K): as the sequence (P31749 whole entry) above, with E17K counted along it
# [1] = system: LAPC4 prostate cancer cells, which express the AKT1 E17K allele; assay: Antiproliferative effects in LAPC4 cells (CellTiter Glo, 72 h); format: cell-based; conditions: Homo sapiens, LAPC4, 72 h, read-out: LAPC4 proliferation IC50: GeoMean IC50
# Method in brief: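 IC50 values come from Hill-equation fitting of luminescence (cellular ATP) after 72 h compound exposure. Treated wells held 1,000 cells each, with compound delivered as DMSO dilutions. Culture medium was IMDM plus 12% FBS.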
# AKT2 = target: T3, AKT2 (Homo sapiens, UniProt P31751); assay: Live cell target engagement by NanoBRET competitive probe displacement, AKT2; format: binding; conditions: transfected HEK293 cells, 2 h at 37° C., read-out: AKT2 IC50: GeoMean IC50
# T3 construct: expressed in transfected cells; host or cells: HEK293
# T3 sequence (P31751 whole entry): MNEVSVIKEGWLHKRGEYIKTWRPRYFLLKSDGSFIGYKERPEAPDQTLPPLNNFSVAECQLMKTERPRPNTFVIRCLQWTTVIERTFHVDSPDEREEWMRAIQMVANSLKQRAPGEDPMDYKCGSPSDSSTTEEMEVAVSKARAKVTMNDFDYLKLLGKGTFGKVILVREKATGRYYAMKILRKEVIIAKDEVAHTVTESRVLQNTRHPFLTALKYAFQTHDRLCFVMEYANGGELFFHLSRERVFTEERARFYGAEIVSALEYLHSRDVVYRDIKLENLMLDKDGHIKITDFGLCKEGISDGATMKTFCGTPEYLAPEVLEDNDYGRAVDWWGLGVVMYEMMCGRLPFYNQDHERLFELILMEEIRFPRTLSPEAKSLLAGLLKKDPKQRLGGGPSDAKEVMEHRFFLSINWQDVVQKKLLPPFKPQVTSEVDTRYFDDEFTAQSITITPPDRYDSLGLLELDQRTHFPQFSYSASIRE
SMILES,pIC50 (AKT1 WT),pIC50 (AKT1 E17K),pIC50 [1],pIC50 (AKT2)
"Nc1ncccc1-c1nc2ccc(-c3ccccc3)nc2n1-c1ccc2c(c1)CC[C@@H]2NC(=O)c1ccc(NC(=O)C2CC2)c(C=O)c1 [Example 47, N-[(1S)-5-[2-(2-aminopyridin-3-yl)-5-phenylimidazo[4,5-b]pyridin-3-yl]-2,3-dihydro-1H-inden-1-yl]-4-cyclopropaneamido-3-formylbenzamide]",7.00 to 8.00,7.00 to 8.00,7.00 to 8.00,7.00 to 8.00
"C#Cc1ccc2nc(-c3cccnc3N)n(-c3ccc4c(c3)CC[C@@H]4NC(=O)c3ccc(O)c(C=O)c3)c2n1 [Example 50, N-[(1S)-5-[2-(2-aminopyridin-3-yl)-5-ethynylimidazo[4,5-b]pyridin-3-yl]-2,3-dihydro-1H-inden-1-yl]-3-formyl-4-hydroxybenzamide]",5.70 to 7.00,7.00 to 8.00,5.70 to 7.00,≤ 5.70
"CS(=O)(=O)Nc1ccc(C(=O)N[C@H]2CCc3cc(-n4c(-c5cccnc5N)nc5ccc(-c6ccccc6)nc54)ccc32)cc1C=O [Example 51, N-[(1S)-5-[2-(2-aminopyridin-3-yl)-5-phenylimidazo[4,5-b]pyridin-3-yl]-2,3-dihydro-1H-inden-1-yl]-3-formyl-4-methanesulfonamidobenzamide]",7.00 to 8.00,> 8.00,7.00 to 8.00,7.00 to 8.00
"Nc1ncccc1-c1nc2ccc(-c3ccccc3)nc2n1-c1ccc2c(c1)CC[C@@H]2NC(=O)c1ccc(NC(=O)C(F)F)c(C=O)c1 [Example 52, N-[(1S)-5-[2-(2-aminopyridin-3-yl)-5-phenylimidazo[4,5-b]pyridin-3-yl]-2,3-dihydro-1H-inden-1-yl]-4-(2,2-difluoroacetamido)-3-formylbenzamide]",> 8.00,> 8.00,7.00 to 8.00,7.00 to 8.00
"CC(=O)Nc1ccc(C(=O)N[C@H]2CCc3cc(-n4c(-c5cccnc5N)nc5ccc(N6CCOCC6)nc54)ccc32)cc1C=O [Example 53, N-[(1S)-5-[2-(2-aminopyridin-3-yl)-5-(morpholin-4-yl)imidazo[4,5-b]pyridin-3-yl]-2,3-dihydro-1H-inden-1-yl]-4-acetamido-3-formylbenzamide]",7.00 to 8.00,> 8.00,5.70 to 7.00,5.70 to 7.00
"Nc1ncccc1-c1nc2ccc(-c3ccccc3)nc2n1-c1ccc2c(c1)CC[C@@H]2NC(=O)c1cnn2ccc(O)c(C=O)c12 [Example 54, N-[(1S)-5-[2-(2-aminopyridin-3-yl)-5-phenylimidazo[4,5-b]pyridin-3-yl]-2,3-dihydro-1H-inden-1-yl]-4-formyl-5-hydroxypyrazolo[1,5-a]pyridine-3-carboxamide]",7.00 to 8.00,5.70 to 7.00,≤ 5.70,5.70 to 7.00
"Nc1ncccc1-c1nc2ccc(C(F)(F)F)nc2n1-c1ccc2c(c1)CC[C@@H]2NC(=O)c1ccc(O)c(C=O)c1 [Example 55, (S)—N-(5-(2-(2-aminopyridin-3-yl)-5-(trifluoromethyl)-3H-imidazo[4,5-b]pyridin-3-yl)-2,3-dihydro-1H-inden-1-yl)-3-formyl-4-hydroxybenzamide]",5.70 to 7.00,5.70 to 7.00,≤ 5.70,≤ 5.70
"Nc1ncccc1-c1nc2ccc(-c3cnn(C(F)F)c3)nc2n1-c1ccc2c(c1)CC[C@@H]2NC(=O)c1ccc(O)c(C=O)c1 [Example 61, N-[(1S)-5-[2-(2-aminopyridin-3-yl)-5-[1-(difluoromethyl)pyrazol-4-yl]imidazo[4,5-b]pyridin-3-yl]-2,3-dihydro-1H-inden-1-yl]-3-formyl-4-hydroxybenzamide]",7.00 to 8.00,7.00 to 8.00,7.00 to 8.00,5.70 to 7.00
"CN(C)C(=O)Nc1ccc(C(=O)N[C@H]2CCc3cc(-n4c(-c5cccnc5N)nc5ccc(-c6ccccc6)nc54)ccc32)cc1C=O [Example 63, (S)—N-(5-(2-(2-aminopyridin-3-yl)-5-phenyl-3H-imidazo[4,5-b]pyridin-3-yl)-2,3-dihydro-1H-inden-1-yl)-4-(3,3-dimethylureido)-3-formylbenzamide]",> 8.00,> 8.00,> 8.00,7.00 to 8.00
"CC(=O)Nc1c(F)cc(C(=O)N[C@H]2CCc3cc(-n4c(-c5cccnc5N)nc5ccc(-c6ccccc6)nc54)ccc32)cc1C=O [Example 64, N-[(1S)-5-[2-(2-aminopyridin-3-yl)-5-phenylimidazo[4,5-b]pyridin-3-yl]-2,3-dihydro-1H-inden-1-yl]-4-acetamido-3-fluoro-5-formylbenzamide]",7.00 to 8.00,7.00 to 8.00,7.00 to 8.00,7.00 to 8.00
"Nc1ncccc1-c1nc2ccc(-c3ccccc3)nc2n1-c1ccc2c(c1)CC[C@@H]2NC(=O)c1ccc(NC(=O)N2CCOCC2)c(C=O)c1 [Example 68, N-(4-{[(1S)-5-[2-(2-aminopyridin-3-yl)-5-phenylimidazo[4,5-b]pyridin-3-yl]-2,3-dihydro-1H-inden-1-yl]carbamoyl}-2-formylphenyl)morpholine-4-carboxamide]",7.00 to 8.00,7.00 to 8.00,5.70 to 7.00,5.70 to 7.00
"Cc1cc(C)c2nc(-c3cccnc3N)n(-c3ccc4c(c3)CC[C@@H]4NC(=O)c3ccc(O)c(C=O)c3)c2n1 [Example 69, N-[(1S)-5-[2-(2-aminopyridin-3-yl)-5,7-dimethylimidazo[4,5-b]pyridin-3-yl]-2,3-dihydro-1H-inden-1-yl]-3-formyl-4-hydroxybenzamide]",5.70 to 7.00,7.00 to 8.00,5.70 to 7.00,≤ 5.70

# Other lines, results leading:
pIC50 (AKT1 WT),pIC50 (AKT1 E17K),pIC50 [1],pIC50 (AKT2),SMILES
5.70 to 7.00,7.00 to 8.00,5.70 to 7.00,≤ 5.70,"Nc1ncccc1-c1nc2ccc(F)nc2n1-c1ccc2c(c1)CC[C@@H]2NC(=O)c1ccc(O)c(C=O)c1 [Example 48, N-[(1S)-5-[2-(2-aminopyridin-3-yl)-5-fluoroimidazo[4,5-b]pyridin-3-yl]-2,3-dihydro-1H-inden-1-yl]-3-formyl-4-hydroxybenzamide]"
5.70 to 7.00,5.70 to 7.00,5.70 to 7.00,≤ 5.70,"Nc1ncccc1-c1nc2ccc(C3CC3)nc2n1-c1ccc2c(c1)CC[C@@H]2NC(=O)c1ccc(O)c(C=O)c1 [Example 49, N-[(1S)-5-[2-(2-aminopyridin-3-yl)-5-cyclopropylimidazo[4,5-b]pyridin-3-yl]-2,3-dihydro-1H-inden-1-yl]-3-formyl-4-hydroxybenzamide]"
7.00 to 8.00,> 8.00,7.00 to 8.00,5.70 to 7.00,"CC(=O)Nc1ccc(C(=O)N[C@H]2CCc3cc(-n4c(-c5cccnc5N)nc5ccc(-n6cccn6)nc54)ccc32)cc1C=O [Example 56, N-[(1S)-5-[2-(2-aminopyridin-3-yl)-5-(pyrazol-1-yl)imidazo[4,5-b]pyridin-3-yl]-2,3-dihydro-1H-inden-1-yl]-4-acetamido-3-formylbenzamide]"
7.00 to 8.00,7.00 to 8.00,7.00 to 8.00,5.70 to 7.00,"Nc1ncccc1-c1nc2ccc(-c3nccs3)nc2n1-c1ccc2c(c1)CC[C@@H]2NC(=O)c1ccc(O)c(C=O)c1 [Example 57, N-[(1S)-5-[2-(2-aminopyridin-3-yl)-5-(1,3-thiazol-2-yl)imidazo[4,5-b]pyridin-3-yl]-2,3-dihydro-1H-inden-1-yl]-3-formyl-4-hydroxybenzamide]"
7.00 to 8.00,7.00 to 8.00,7.00 to 8.00,5.70 to 7.00,"Nc1ncccc1-c1nc2ccc(-c3cncnc3)nc2n1-c1ccc2c(c1)CC[C@@H]2NC(=O)c1ccc(O)c(C=O)c1 [Example 58, N-[(1S)-5-[2-(2-aminopyridin-3-yl)-5-(pyrimidin-5-yl)imidazo[4,5-b]pyridin-3-yl]-2,3-dihydro-1H-inden-1-yl]-3-formyl-4-hydroxybenzamide]"
7.00 to 8.00,7.00 to 8.00,7.00 to 8.00,5.70 to 7.00,"Cn1ccc(-c2ccc3nc(-c4cccnc4N)n(-c4ccc5c(c4)CC[C@@H]5NC(=O)c4ccc(O)c(C=O)c4)c3n2)n1 [Example 59, (S)—N-(5-(2-(2-aminopyridin-3-yl)-5-(1-methyl-1H-pyrazol-3-yl)-3Himidazo[4,5-b]pyridin-3-yl)-2,3-dihydro-1H-inden-1-yl)-3-formyl-4-hydroxybenzamide]"
7.00 to 8.00,7.00 to 8.00,5.70 to 7.00,5.70 to 7.00,"Nc1ncccc1-c1nc2ccc(-c3cnn(C4CC4)c3)nc2n1-c1ccc2c(c1)CC[C@@H]2NC(=O)c1ccc(O)c(C=O)c1 [Example 62, N-[(1S)-5-[2-(2-aminopyridin-3-yl)-5-(1-cyclopropylpyrazol-4-yl)imidazo[4,5-b]pyridin-3-yl]-2,3-dihydro-1H-inden-1-yl]-3-formyl-4-hydroxybenzamide]"
7.00 to 8.00,> 8.00,7.00 to 8.00,5.70 to 7.00,"Nc1ncccc1-c1nc2ccc(-n3cccn3)nc2n1-c1ccc2c(c1)CC[C@@H]2NC(=O)c1cc(C=O)c2[nH]ncc2c1 [Example 66, N-[(1S)-5-[2-(2-aminopyridin-3-yl)-5-(pyrazol-1-yl)imidazo[4,5-b]pyridin-3-yl]-2,3-dihydro-1H-inden-1-yl]-7-formyl-1H-indazole-5-carboxamide]"
5.70 to 7.00,5.70 to 7.00,5.70 to 7.00,5.70 to 7.00,"Nc1ncccc1-c1nc2ccc(-c3cn[nH]c3)nc2n1-c1ccc2c(c1)CC[C@@H]2NC(=O)c1ccc(O)c(C=O)c1 [Example 67, N-[(1S)-5-[2-(2-aminopyridin-3-yl)-5-(1H-pyrazol-4-yl)imidazo[4,5-b]pyridin-3-yl]-2,3-dihydro-1H-inden-1-yl]-3-formyl-4-hydroxybenzamide]"
